The supplement of paper PMC13207355

Legend:
Conditions in all cases: exposure time: 72 h
E34 [1] = patient-derived glioblastoma stem cells of proneural subtype; assay: surviving fraction (nuclei count normalised to DMSO); higher = more cells surviving (less toxic)
E31 [2] = patient-derived glioblastoma stem cells of proneural subtype; assay: as above
FT3469 [3] = normal neural stem cell line; assay: as above
E28 [4] = patient-derived glioblastoma stem cells of classical subtype; assay: as above
E13 [5] = patient-derived glioblastoma stem cells of classical subtype; assay: as above
E21 [6] = patient-derived glioblastoma stem cells of mesenchymal subtype; assay: as above
E57 [7] = patient-derived glioblastoma stem cells of mesenchymal subtype; assay: as above
E34 [8] = assay: phenotypic distance (Euclidean, principal components) from DMSO controls (arbitrary units); higher = stronger morphological change
E31 [9] = assay: as above
FT3469 [10] = assay: as above
E28 [11] = assay: as above
E13 [12] = assay: as above
E21 [13] = assay: as above
E57 [14] = assay: as above
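For phenotypic distance (Euclidean, principal components) from DMSO controls in this document: cell Painting imaging in 384-well plates, CellProfiler features reduced to at least 20 principal components, Euclidean distance versus same-plate DMSO vehicle wells (0.1% v/v), median over six images per well.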
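For surviving fraction (nuclei count normalised to DMSO) in this document: nuclei counted by high-content imaging of Hoechst-stained cells in laminin-coated 384-well plates, relative to 0.1% DMSO vehicle wells, with staurosporine as cell-death control.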

CC(C)C[C@H](NC(=O)[C@H](CCc1ccccc1)NC(=O)CN1CCOCC1)C(=O)N[C@@H](Cc1ccccc1)C(=O)N[C@@H](CC(C)C)C(=O)[C@@]1(C)CO1 [Carfilzomib]
surviving fraction (E34 [1]; 4.1 nM): 0.262 | surviving fraction (E34 [1]; 12.3 nM): 0.0542 | surviving fraction (E34 [1]; 37 nM): 0.035 | surviving fraction (E34 [1]; 111.1 nM): 0.0297 | surviving fraction (E34 [1]; 333.3 nM): 0.042 | surviving fraction (E34 [1]; 1000 nM): 0.035 | surviving fraction (E34 [1]; 3000 nM): 0.0455 | surviving fraction (E31 [2]; 4.1 nM): 0.0683 | surviving fraction (E31 [2]; 12.3 nM): 0.00163 | surviving fraction (E31 [2]; 37 nM): 0.00651 | surviving fraction (E31 [2]; 111.1 nM): 0.00163 | surviving fraction (E31 [2]; 333.3 nM): 0.00814 | surviving fraction (E31 [2]; 1000 nM): 0.013 | surviving fraction (E31 [2]; 3000 nM): 0.0195 | surviving fraction (FT3469 [3]; 4.1 nM): 0.224 | surviving fraction (FT3469 [3]; 12.3 nM): 0.158 | surviving fraction (FT3469 [3]; 37 nM): 0.124 | surviving fraction (FT3469 [3]; 111.1 nM): 0.095 | surviving fraction (FT3469 [3]; 333.3 nM): 0.0806 | surviving fraction (FT3469 [3]; 1000 nM): 0.112 | surviving fraction (FT3469 [3]; 3000 nM): 0.0863 | surviving fraction (E28 [4]; 4.1 nM): 0.177 | surviving fraction (E28 [4]; 12.3 nM): 0.0576 | surviving fraction (E28 [4]; 37 nM): 0.0811 | surviving fraction (E28 [4]; 111.1 nM): 0.0683 | surviving fraction (E28 [4]; 333.3 nM): 0.109 | surviving fraction (E28 [4]; 1000 nM): 0.0768 | surviving fraction (E28 [4]; 3000 nM): 0.16 | surviving fraction (E13 [5]; 4.1 nM): 0.0693 | surviving fraction (E13 [5]; 12.3 nM): 0.000925 | surviving fraction (E13 [5]; 37 nM): 0.00185 | surviving fraction (E13 [5]; 111.1 nM): 0.0037 | surviving fraction (E13 [5]; 333.3 nM): 0.00277 | surviving fraction (E13 [5]; 1000 nM): 0 | surviving fraction (E13 [5]; 3000 nM): 0 | surviving fraction (E21 [6]; 4.1 nM): 0.281 | surviving fraction (E21 [6]; 12.3 nM): 0.00694 | surviving fraction (E21 [6]; 37 nM): 0.00198 | surviving fraction (E21 [6]; 111.1 nM): 0.000991 | surviving fraction (E21 [6]; 333.3 nM): 0 | surviving fraction (E21 [6]; 1000 nM): 0.00297 | surviving fraction (E21 [6]; 3000 nM): 0.000991 | surviving fraction (E57 [7]; 4.1 nM): 0.0418 | surviving fraction (E57 [7]; 12.3 nM): 0.00509 | surviving fraction (E57 [7]; 37 nM): 0.00509 | surviving fraction (E57 [7]; 111.1 nM): 0.00305 | surviving fraction (E57 [7]; 333.3 nM): 0.00509 | surviving fraction (E57 [7]; 1000 nM): 0.00407 | surviving fraction (E57 [7]; 3000 nM): 0.00458 | phenotypic distance (E34 [8]; 4.1 nM): 5.47 | phenotypic distance (E34 [8]; 12.3 nM): 11.7 | phenotypic distance (E34 [8]; 37 nM): 12.5 | phenotypic distance (E34 [8]; 111.1 nM): 13.8 | phenotypic distance (E34 [8]; 333.3 nM): 15.8 | phenotypic distance (E34 [8]; 1000 nM): 14.1 | phenotypic distance (E34 [8]; 3000 nM): 14.9 | phenotypic distance (E31 [9]; 4.1 nM): 8.54 | phenotypic distance (E31 [9]; 12.3 nM): 12.7 | phenotypic distance (E31 [9]; 37 nM): 11.3 | phenotypic distance (E31 [9]; 111.1 nM): 12.1 | phenotypic distance (E31 [9]; 333.3 nM): 9.53 | phenotypic distance (E31 [9]; 1000 nM): 9.35 | phenotypic distance (E31 [9]; 3000 nM): 8.45 | phenotypic distance (FT3469 [10]; 4.1 nM): 5.32 | phenotypic distance (FT3469 [10]; 12.3 nM): 7.47 | phenotypic distance (FT3469 [10]; 37 nM): 7.85 | phenotypic distance (FT3469 [10]; 111.1 nM): 6.13 | phenotypic distance (FT3469 [10]; 333.3 nM): 7.43 | phenotypic distance (FT3469 [10]; 1000 nM): 6.91 | phenotypic distance (FT3469 [10]; 3000 nM): 7.23 | phenotypic distance (E28 [11]; 4.1 nM): 3.34 | phenotypic distance (E28 [11]; 12.3 nM): 5.12 | phenotypic distance (E28 [11]; 37 nM): 6.26 | phenotypic distance (E28 [11]; 111.1 nM): 5.31 | phenotypic distance (E28 [11]; 333.3 nM): 5.36 | phenotypic distance (E28 [11]; 1000 nM): 5.52 | phenotypic distance (E28 [11]; 3000 nM): 5.18 | phenotypic distance (E13 [12]; 4.1 nM): 7.83 | phenotypic distance (E13 [12]; 12.3 nM): 12.9 | phenotypic distance (E13 [12]; 37 nM): 15.6 | phenotypic distance (E13 [12]; 111.1 nM): 16.7 | phenotypic distance (E13 [12]; 333.3 nM): 13.2 | phenotypic distance (E13 [12]; 1000 nM): 18.4 | phenotypic distance (E13 [12]; 3000 nM): 20.8 | phenotypic distance (E21 [13]; 4.1 nM): 6.32 | phenotypic distance (E21 [13]; 12.3 nM): 12.1 | phenotypic distance (E21 [13]; 37 nM): 18.5 | phenotypic distance (E21 [13]; 111.1 nM): 17.9 | phenotypic distance (E21 [13]; 333.3 nM): 24 | phenotypic distance (E21 [13]; 1000 nM): 18.7 | phenotypic distance (E21 [13]; 3000 nM): 17.1 | phenotypic distance (E57 [14]; 4.1 nM): 12.2 | phenotypic distance (E57 [14]; 12.3 nM): 12.4 | phenotypic distance (E57 [14]; 37 nM): 11.4 | phenotypic distance (E57 [14]; 111.1 nM): 12.8 | phenotypic distance (E57 [14]; 333.3 nM): 8.61 | phenotypic distance (E57 [14]; 1000 nM): 14.1 | phenotypic distance (E57 [14]; 3000 nM): 13.2

CN1C(=O)OC(C)(C)C1=O [Trimethadione]
surviving fraction (E34 [1]; 4.1 nM): 1.12 | surviving fraction (E34 [1]; 12.3 nM): 1.04 | surviving fraction (E34 [1]; 37 nM): 1.04 | surviving fraction (E34 [1]; 111.1 nM): 0.867 | surviving fraction (E34 [1]; 333.3 nM): 0.972 | surviving fraction (E34 [1]; 1000 nM): 0.961 | surviving fraction (E34 [1]; 3000 nM): 0.86 | surviving fraction (E31 [2]; 4.1 nM): 0.999 | surviving fraction (E31 [2]; 12.3 nM): 1.03 | surviving fraction (E31 [2]; 37 nM): 0.936 | surviving fraction (E31 [2]; 111.1 nM): 1.15 | surviving fraction (E31 [2]; 333.3 nM): 1.04 | surviving fraction (E31 [2]; 1000 nM): 1.01 | surviving fraction (E31 [2]; 3000 nM): 0.759 | surviving fraction (FT3469 [3]; 4.1 nM): 1.05 | surviving fraction (FT3469 [3]; 12.3 nM): 0.973 | surviving fraction (FT3469 [3]; 37 nM): 0.987 | surviving fraction (FT3469 [3]; 111.1 nM): 1.03 | surviving fraction (FT3469 [3]; 333.3 nM): 0.983 | surviving fraction (FT3469 [3]; 1000 nM): 1.03 | surviving fraction (FT3469 [3]; 3000 nM): 0.855 | surviving fraction (E28 [4]; 4.1 nM): 0.994 | surviving fraction (E28 [4]; 12.3 nM): 1.14 | surviving fraction (E28 [4]; 37 nM): 0.959 | surviving fraction (E28 [4]; 111.1 nM): 1.03 | surviving fraction (E28 [4]; 333.3 nM): 1 | surviving fraction (E28 [4]; 1000 nM): 1 | surviving fraction (E28 [4]; 3000 nM): 0.903 | surviving fraction (E13 [5]; 4.1 nM): 0.872 | surviving fraction (E13 [5]; 12.3 nM): 1.05 | surviving fraction (E13 [5]; 37 nM): 0.904 | surviving fraction (E13 [5]; 111.1 nM): 0.943 | surviving fraction (E13 [5]; 333.3 nM): 0.94 | surviving fraction (E13 [5]; 1000 nM): 1.07 | surviving fraction (E13 [5]; 3000 nM): 0.9 | surviving fraction (E21 [6]; 4.1 nM): 0.949 | surviving fraction (E21 [6]; 12.3 nM): 1.02 | surviving fraction (E21 [6]; 37 nM): 0.937 | surviving fraction (E21 [6]; 111.1 nM): 1.05 | surviving fraction (E21 [6]; 333.3 nM): 1.01 | surviving fraction (E21 [6]; 1000 nM): 0.949 | surviving fraction (E21 [6]; 3000 nM): 1.03 | surviving fraction (E57 [7]; 4.1 nM): 1.11 | surviving fraction (E57 [7]; 12.3 nM): 0.909 | surviving fraction (E57 [7]; 37 nM): 1.04 | surviving fraction (E57 [7]; 111.1 nM): 1.04 | surviving fraction (E57 [7]; 333.3 nM): 1 | surviving fraction (E57 [7]; 1000 nM): 0.96 | surviving fraction (E57 [7]; 3000 nM): 0.885 | phenotypic distance (E34 [8]; 4.1 nM): 0.536 | phenotypic distance (E34 [8]; 12.3 nM): 0.379 | phenotypic distance (E34 [8]; 37 nM): 0.464 | phenotypic distance (E34 [8]; 111.1 nM): 1.03 | phenotypic distance (E34 [8]; 333.3 nM): 0.604 | phenotypic distance (E34 [8]; 1000 nM): 0.565 | phenotypic distance (E34 [8]; 3000 nM): 0.885 | phenotypic distance (E31 [9]; 4.1 nM): 0.578 | phenotypic distance (E31 [9]; 12.3 nM): 0.705 | phenotypic distance (E31 [9]; 37 nM): 0.678 | phenotypic distance (E31 [9]; 111.1 nM): 0.582 | phenotypic distance (E31 [9]; 333.3 nM): 0.402 | phenotypic distance (E31 [9]; 1000 nM): 0.343 | phenotypic distance (E31 [9]; 3000 nM): 0.599 | phenotypic distance (FT3469 [10]; 4.1 nM): 0.493 | phenotypic distance (FT3469 [10]; 12.3 nM): 0.946 | phenotypic distance (FT3469 [10]; 37 nM): 0.598 | phenotypic distance (FT3469 [10]; 111.1 nM): 0.319 | phenotypic distance (FT3469 [10]; 333.3 nM): 0.852 | phenotypic distance (FT3469 [10]; 1000 nM): 0.673 | phenotypic distance (FT3469 [10]; 3000 nM): 0.994 | phenotypic distance (E28 [11]; 4.1 nM): 0.624 | phenotypic distance (E28 [11]; 12.3 nM): 0.657 | phenotypic distance (E28 [11]; 37 nM): 0.665 | phenotypic distance (E28 [11]; 111.1 nM): 0.367 | phenotypic distance (E28 [11]; 333.3 nM): 0.471 | phenotypic distance (E28 [11]; 1000 nM): 0.385 | phenotypic distance (E28 [11]; 3000 nM): 0.844 | phenotypic distance (E13 [12]; 4.1 nM): 0.619 | phenotypic distance (E13 [12]; 12.3 nM): 0.485 | phenotypic distance (E13 [12]; 37 nM): 0.498 | phenotypic distance (E13 [12]; 111.1 nM): 0.332 | phenotypic distance (E13 [12]; 333.3 nM): 0.419 | phenotypic distance (E13 [12]; 1000 nM): 0.395 | phenotypic distance (E13 [12]; 3000 nM): 0.509 | phenotypic distance (E21 [13]; 4.1 nM): 0.779 | phenotypic distance (E21 [13]; 12.3 nM): 0.495 | phenotypic distance (E21 [13]; 37 nM): 0.506 | phenotypic distance (E21 [13]; 111.1 nM): 0.324 | phenotypic distance (E21 [13]; 333.3 nM): 0.36 | phenotypic distance (E21 [13]; 1000 nM): 0.29 | phenotypic distance (E21 [13]; 3000 nM): 0.461 | phenotypic distance (E57 [14]; 4.1 nM): 0.62 | phenotypic distance (E57 [14]; 12.3 nM): 0.587 | phenotypic distance (E57 [14]; 37 nM): 0.572 | phenotypic distance (E57 [14]; 111.1 nM): 0.439 | phenotypic distance (E57 [14]; 333.3 nM): 0.455 | phenotypic distance (E57 [14]; 1000 nM): 1.11 | phenotypic distance (E57 [14]; 3000 nM): 0.844
